As a reminder, the IC50 is the concentration needed to halve the response being measured. Read a high IC50 as lower potency.

Data on 6 compounds can be found in BindingDB's records for doi:10.1016/j.bmc.2006.03.021 (Vernalis (R&D), 2006).

For this experiment, the target named is T1, Serine/threonine-protein kinase Chk1 (Homo sapiens, UniProt O14757).
T1 sequence (O14757 whole entry): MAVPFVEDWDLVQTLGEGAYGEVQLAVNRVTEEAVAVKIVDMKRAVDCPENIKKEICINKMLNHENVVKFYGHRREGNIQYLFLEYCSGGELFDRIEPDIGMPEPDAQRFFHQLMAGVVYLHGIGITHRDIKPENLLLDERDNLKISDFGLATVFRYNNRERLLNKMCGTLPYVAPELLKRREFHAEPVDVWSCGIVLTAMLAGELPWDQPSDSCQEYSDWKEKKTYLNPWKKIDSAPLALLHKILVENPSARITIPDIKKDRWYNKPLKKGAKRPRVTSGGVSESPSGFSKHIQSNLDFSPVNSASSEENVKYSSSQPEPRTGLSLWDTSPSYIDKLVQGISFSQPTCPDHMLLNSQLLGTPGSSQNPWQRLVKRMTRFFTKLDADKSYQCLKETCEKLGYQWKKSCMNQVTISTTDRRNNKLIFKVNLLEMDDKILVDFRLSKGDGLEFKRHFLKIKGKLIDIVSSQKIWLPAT
Nature of the experiment: Chk1 Enzymatic Assay. The note with it: pH 7.5; 30 °C. The procedure: Chk1 kinase activity was assayed in reaction buffer containing substrate peptide, enzyme, and inhibitor in the presence of 100uM ATP/[gamma-33P] ATP. 33P incorporation was measured using a Perkin-Elmer Trilux scintillation counter. The IC50 is the inhibitor concentration, which inhibits 50% of kinase activity that catalyzes the transfer of the terminal phosphate from 33P labeled ATP to the substrate.

Compound `Nc1ncnc2nc(SCC(=O)O)[nH]c12` [2-[(6-amino-9H-purin-8-yl)sulfanyl]acetic acid] gave an IC50 of 31.8 µM.

The compound `NN1C(=O)C([c-]2c(=O)[nH]c3ccc([N+](=O)[O-])cc32)=[S+]C1=S` [3-amino-5-[(3Z)-5-nitro-2-oxo-2,3-dihydro-1H-indol-3-ylidene]-2-sulfanylidene-1,3-thiazolidin-4-one] gave an IC50 of 72.7 µM.

`COc1ccc(Cl)cc1-c1nnc(Nc2ccc(C(=O)O)cc2)s1` [4-{[5-(5-chloro-2-methoxyphenyl)-1,3,4-thiadiazol-2-yl]amino}benzoic acid] showed a 50% inhibitory concentration (IC50) of 26.6 µM.

Take `Cc1[nH]nc2c1C(c1ccc(O)c(O)c1)C(C#N)C(=N)O2` (stereo unspecified) [6-amino-4-(3,4-dihydroxyphenyl)-3-methyl-1H,4H-pyrano[2,3-c]pyrazole-5-carbonitrile]: the IC50 is 20.4 µM.

Turning to `Clc1cc2c(cc1CN=Nc1nnc3c(n1)[nH]c1ccccc13)OCO2` [(1E)-1-[(6-chloro-2H-1,3-benzodioxol-5-yl)methylidene]-2-{5H-[1,2,4]triazino[5,6-b]indol-3-yl}hydrazine], inhibition was half-maximal at 20.1 µM (IC50).

`NCCCNc1nc(F)c(Cl)c(C2c3ccccc3Sc3ccccc32)c1F` [N-(3-aminopropyl)-5-chloro-3,6-difluoro-4-(9H-thioxanthen-9-yl)pyridin-2-amine] registered an IC50 of 15.8 µM.
